Columns and labels:
Assay in all cases: KinaseProfiler kinase assay
Format in all cases: biochemical
AMPKα1(h) = AMPKα1(h) (Homo sapiens, UniProt Q13131)
How it was run: (§1)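 Kinase activity is followed by incorporation of 33P from [γ-33P]ATP in 8 mM MOPS pH 7.0 with 10 mM Mg acetate and 0.2 mM EDTA over 40 min at room temperature. Inhibition is scaled between no-kinase and phosphopeptide control wells.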

Bmx(h) = Bmx(h) (Homo sapiens, UniProt P51813)
How it was run: as §1

BrSK2(h) = BrSK2(h) (Homo sapiens, UniProt Q8IWQ3)
How it was run: as §1

CDK5/p35(h) = CDK5/p35(h) (Homo sapiens, UniProt Q00535)
How it was run: as §1

CK1γ3(h) = CK1γ3(h) (Homo sapiens, UniProt Q9Y6M4)
How it was run: as §1

CLK3(h) = CLK3(h) (Homo sapiens, UniProt P49761)
How it was run: as §1

CSK(h) = CSK(h) (Homo sapiens, UniProt P41240)
How it was run: as §1

DAPK1(h) = DAPK1(h) (Homo sapiens, UniProt P53355)
How it was run: as §1

EGFR(L858R)(h) = EGFR(L858R)(h) (Homo sapiens, UniProt P00533, L858R)
How it was run: as §1

EphA1(h) = EphA1(h) (Homo sapiens, UniProt P21709)
How it was run: as §1

Fes(h) = Fes(h) (Homo sapiens, UniProt P07332)
How it was run: as §1

JNK1α1(h) = JNK1α1(h) (Homo sapiens, UniProt P45983)
How it was run: as §1

JNK3(h) = JNK3(h) (Homo sapiens, UniProt P53779)
How it was run: as §1

MAPK2(h) = MAPK2(h) (Homo sapiens, UniProt P28482)
How it was run: as §1

MRCKβ(h) = MRCKβ(h) (Homo sapiens, UniProt Q9Y5S2)
How it was run: as §1

Met(h) = Met(h) (Homo sapiens, UniProt P08581)
How it was run: as §1

PAR-1Bα(h) = PAR-1Bα(h) (Homo sapiens, UniProt Q7KZI7)
How it was run: as §1

[1] = target: PI3 Kinase (p110α/p65α)(h) (Homo sapiens, UniProt P42336)
How it was run: as §1

Pyk2(h) = Pyk2(h) (Homo sapiens, UniProt Q14289)
How it was run: as §1

Ros(h) = Ros(h) (Homo sapiens, UniProt P08922)
How it was run: as §1

Rsk2(h) = Rsk2(h) (Homo sapiens, UniProt P51812)
How it was run: as §1

Rsk3(h) = Rsk3(h) (Homo sapiens, UniProt Q15349)
How it was run: as §1

SAPK4(h) = SAPK4(h) (Homo sapiens, UniProt O15264)
How it was run: as §1

SRPK1(h) = SRPK1(h) (Homo sapiens, UniProt Q96SB4)
How it was run: as §1

Snk(h) = Snk(h) (Homo sapiens, UniProt Q9NYY3)
How it was run: as §1

TAK1(h) = TAK1(h) (Homo sapiens, UniProt O43318)
How it was run: as §1

TLK2(h) = TLK2(h) (Homo sapiens, UniProt Q86UE8)
How it was run: as §1

Txk(h) = Txk(h) (Homo sapiens, UniProt P42681)
How it was run: as §1

ULK3(h) = ULK3(h) (Homo sapiens, UniProt Q6PHR2)
How it was run: as §1

WNK2(h) = WNK2(h) (Homo sapiens, UniProt Q9Y3S1)
How it was run: as §1

WNK3(h) = WNK3(h) (Homo sapiens, UniProt Q9BYP7)
How it was run: as §1

c-RAF(h) = c-RAF(h) (Homo sapiens, UniProt P04049, Y340D/Y341D)
How it was run: as §1

Rsk3(h), sequence (Q15349 whole entry): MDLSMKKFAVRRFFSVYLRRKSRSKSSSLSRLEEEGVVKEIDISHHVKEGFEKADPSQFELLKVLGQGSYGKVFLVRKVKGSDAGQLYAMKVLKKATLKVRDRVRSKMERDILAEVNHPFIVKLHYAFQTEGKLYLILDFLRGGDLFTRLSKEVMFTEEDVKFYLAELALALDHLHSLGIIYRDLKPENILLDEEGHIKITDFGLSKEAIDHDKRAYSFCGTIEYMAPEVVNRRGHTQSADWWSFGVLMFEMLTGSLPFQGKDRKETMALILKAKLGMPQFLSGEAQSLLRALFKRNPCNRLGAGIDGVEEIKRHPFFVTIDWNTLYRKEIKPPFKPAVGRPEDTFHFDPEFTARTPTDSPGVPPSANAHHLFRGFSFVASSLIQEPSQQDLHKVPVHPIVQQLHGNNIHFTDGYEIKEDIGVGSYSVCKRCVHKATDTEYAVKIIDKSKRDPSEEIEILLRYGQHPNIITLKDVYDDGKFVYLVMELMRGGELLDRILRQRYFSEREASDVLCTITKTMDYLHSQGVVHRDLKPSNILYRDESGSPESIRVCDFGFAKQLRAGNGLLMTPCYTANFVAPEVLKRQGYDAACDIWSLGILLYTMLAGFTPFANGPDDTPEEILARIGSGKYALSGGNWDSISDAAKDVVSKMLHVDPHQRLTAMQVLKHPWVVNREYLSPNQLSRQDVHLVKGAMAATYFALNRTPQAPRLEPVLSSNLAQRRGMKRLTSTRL
MAPK2(h), sequence (P28482 whole entry): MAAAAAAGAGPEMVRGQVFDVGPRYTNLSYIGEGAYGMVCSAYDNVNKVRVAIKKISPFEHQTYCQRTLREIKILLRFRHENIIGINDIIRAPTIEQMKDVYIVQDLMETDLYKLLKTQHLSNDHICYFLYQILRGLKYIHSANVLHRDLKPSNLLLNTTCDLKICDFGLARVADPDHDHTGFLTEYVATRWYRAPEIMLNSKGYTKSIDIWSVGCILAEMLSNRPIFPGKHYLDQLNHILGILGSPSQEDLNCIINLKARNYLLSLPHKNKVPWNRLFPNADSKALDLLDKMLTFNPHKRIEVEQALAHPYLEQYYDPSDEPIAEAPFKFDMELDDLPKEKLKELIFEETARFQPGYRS
Met(h), sequence (P08581 25-1390): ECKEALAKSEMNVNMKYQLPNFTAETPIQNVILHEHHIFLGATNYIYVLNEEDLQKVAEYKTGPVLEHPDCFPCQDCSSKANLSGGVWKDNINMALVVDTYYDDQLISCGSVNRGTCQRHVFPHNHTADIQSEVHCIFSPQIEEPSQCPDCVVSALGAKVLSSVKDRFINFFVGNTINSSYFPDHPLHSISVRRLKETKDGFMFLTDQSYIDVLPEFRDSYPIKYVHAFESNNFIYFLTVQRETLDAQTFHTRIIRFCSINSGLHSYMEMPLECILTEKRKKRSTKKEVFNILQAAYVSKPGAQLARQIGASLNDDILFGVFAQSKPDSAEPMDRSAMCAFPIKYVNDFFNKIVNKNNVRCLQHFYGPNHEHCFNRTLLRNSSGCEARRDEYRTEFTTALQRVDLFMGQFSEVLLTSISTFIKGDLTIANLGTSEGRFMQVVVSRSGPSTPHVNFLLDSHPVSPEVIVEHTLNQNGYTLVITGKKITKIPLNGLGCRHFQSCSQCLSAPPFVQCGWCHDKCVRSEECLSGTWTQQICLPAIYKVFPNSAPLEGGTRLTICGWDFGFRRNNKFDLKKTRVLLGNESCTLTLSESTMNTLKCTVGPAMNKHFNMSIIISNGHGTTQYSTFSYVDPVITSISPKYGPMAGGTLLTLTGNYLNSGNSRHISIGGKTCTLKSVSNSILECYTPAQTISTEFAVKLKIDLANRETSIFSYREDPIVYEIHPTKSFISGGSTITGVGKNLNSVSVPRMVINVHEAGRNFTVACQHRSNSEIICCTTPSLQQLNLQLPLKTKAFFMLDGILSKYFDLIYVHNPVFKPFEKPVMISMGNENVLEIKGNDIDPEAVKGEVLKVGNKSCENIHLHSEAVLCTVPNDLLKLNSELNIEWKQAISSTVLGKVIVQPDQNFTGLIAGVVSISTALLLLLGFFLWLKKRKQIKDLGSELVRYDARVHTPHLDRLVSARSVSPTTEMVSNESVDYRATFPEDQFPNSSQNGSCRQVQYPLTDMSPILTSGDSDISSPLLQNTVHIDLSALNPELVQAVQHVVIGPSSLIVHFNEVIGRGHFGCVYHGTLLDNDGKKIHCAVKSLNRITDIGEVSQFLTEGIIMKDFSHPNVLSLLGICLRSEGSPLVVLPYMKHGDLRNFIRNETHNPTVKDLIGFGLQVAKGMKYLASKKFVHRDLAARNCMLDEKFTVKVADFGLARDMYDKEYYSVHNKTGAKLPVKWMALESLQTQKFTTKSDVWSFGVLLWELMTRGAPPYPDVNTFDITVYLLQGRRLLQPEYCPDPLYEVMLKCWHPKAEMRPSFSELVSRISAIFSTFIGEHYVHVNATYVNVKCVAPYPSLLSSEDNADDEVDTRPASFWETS
JNK3(h), sequence (P53779 whole entry): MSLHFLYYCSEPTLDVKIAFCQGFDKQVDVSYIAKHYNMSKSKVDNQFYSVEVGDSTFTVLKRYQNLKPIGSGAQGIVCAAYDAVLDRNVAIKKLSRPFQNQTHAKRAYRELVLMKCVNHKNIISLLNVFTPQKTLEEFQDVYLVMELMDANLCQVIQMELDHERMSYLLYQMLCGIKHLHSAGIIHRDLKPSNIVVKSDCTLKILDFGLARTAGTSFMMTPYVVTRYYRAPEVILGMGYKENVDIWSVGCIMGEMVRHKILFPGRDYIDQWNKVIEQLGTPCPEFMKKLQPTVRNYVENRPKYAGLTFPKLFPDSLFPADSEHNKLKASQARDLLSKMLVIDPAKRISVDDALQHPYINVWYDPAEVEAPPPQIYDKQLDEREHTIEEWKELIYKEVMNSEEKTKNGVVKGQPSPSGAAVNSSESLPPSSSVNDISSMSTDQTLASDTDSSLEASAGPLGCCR
EGFR(L858R)(h), sequence (P00533 25-1210 L858R): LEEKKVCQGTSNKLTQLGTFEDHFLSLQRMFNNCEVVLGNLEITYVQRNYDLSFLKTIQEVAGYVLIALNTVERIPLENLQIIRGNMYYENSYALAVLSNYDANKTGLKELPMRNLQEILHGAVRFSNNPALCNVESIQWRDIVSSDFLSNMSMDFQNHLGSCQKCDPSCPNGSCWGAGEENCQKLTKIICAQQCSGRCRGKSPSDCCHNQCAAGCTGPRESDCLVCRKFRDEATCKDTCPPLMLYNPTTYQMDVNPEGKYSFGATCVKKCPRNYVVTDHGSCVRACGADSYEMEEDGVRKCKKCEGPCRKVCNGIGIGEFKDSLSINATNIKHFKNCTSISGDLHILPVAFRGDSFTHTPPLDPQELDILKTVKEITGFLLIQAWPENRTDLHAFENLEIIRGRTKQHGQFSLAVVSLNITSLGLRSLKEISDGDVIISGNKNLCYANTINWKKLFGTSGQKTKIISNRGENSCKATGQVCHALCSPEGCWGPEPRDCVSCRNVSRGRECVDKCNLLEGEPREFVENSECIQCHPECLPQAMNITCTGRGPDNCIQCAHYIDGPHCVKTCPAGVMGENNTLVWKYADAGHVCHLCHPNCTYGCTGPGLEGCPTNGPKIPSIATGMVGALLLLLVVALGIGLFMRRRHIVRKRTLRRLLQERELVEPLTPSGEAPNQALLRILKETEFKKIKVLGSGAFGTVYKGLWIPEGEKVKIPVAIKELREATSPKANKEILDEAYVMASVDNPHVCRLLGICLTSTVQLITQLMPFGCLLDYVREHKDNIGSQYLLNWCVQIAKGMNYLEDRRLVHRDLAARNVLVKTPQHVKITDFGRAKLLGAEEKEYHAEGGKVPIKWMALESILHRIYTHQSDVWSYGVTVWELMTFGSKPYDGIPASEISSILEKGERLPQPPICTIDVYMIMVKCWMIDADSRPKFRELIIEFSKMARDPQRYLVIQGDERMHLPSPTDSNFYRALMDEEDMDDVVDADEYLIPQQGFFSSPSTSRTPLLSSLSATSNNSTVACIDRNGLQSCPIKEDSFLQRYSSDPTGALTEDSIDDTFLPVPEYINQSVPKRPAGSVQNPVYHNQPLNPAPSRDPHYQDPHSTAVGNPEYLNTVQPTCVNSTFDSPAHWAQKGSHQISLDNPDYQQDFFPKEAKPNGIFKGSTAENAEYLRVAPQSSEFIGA
Fes(h), sequence (P07332 whole entry): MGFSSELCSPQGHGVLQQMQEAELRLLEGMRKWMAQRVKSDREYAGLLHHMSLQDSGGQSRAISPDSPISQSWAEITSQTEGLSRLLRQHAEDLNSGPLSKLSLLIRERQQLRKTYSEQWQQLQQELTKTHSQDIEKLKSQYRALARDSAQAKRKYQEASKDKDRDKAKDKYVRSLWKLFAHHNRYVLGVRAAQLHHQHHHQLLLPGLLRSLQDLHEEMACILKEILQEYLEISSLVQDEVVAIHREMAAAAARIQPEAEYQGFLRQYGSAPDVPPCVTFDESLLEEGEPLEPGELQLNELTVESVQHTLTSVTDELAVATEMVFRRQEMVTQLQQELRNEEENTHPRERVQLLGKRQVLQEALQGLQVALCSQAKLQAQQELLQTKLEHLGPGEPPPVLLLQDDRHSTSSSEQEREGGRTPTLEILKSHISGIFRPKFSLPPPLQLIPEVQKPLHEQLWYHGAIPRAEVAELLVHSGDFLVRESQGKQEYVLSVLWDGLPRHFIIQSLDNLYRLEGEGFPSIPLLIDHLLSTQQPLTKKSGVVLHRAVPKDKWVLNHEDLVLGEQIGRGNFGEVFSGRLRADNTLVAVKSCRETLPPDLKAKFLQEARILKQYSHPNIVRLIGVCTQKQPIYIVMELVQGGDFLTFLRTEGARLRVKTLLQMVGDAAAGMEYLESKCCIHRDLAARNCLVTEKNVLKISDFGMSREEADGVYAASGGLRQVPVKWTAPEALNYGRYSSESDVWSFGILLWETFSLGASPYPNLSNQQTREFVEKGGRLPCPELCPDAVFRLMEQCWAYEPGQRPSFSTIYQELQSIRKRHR

| Structure (SMILES) | inhibition at 0.1 µM (AMPKα1(h)) | inhibition at 0.1 µM (Bmx(h)) | inhibition at 0.1 µM (BrSK2(h)) | inhibition at 0.1 µM (CDK5/p35(h)) | inhibition at 0.1 µM (CK1γ3(h)) | inhibition at 0.1 µM (CLK3(h)) | inhibition at 0.1 µM (CSK(h)) | inhibition at 0.1 µM (DAPK1(h)) | inhibition at 0.1 µM (EGFR(L858R)(h)) | inhibition at 0.1 µM (EphA1(h)) | inhibition at 0.1 µM (Fes(h)) | inhibition at 0.1 µM (JNK1α1(h)) | inhibition at 0.1 µM (JNK3(h)) | inhibition at 0.1 µM (MAPK2(h)) | inhibition at 0.1 µM (MRCKβ(h)) | inhibition at 0.1 µM (Met(h)) | inhibition at 0.1 µM (PAR-1Bα(h)) | inhibition at 0.1 µM [1] | inhibition at 0.1 µM (Pyk2(h)) | inhibition at 0.1 µM (Ros(h)) | further results |
| --- | --- | --- | --- | --- | --- | --- | --- | --- | --- | --- | --- | --- | --- | --- | --- | --- | --- | --- | --- | --- | --- |
| Cc1cc2c(F)c(Oc3nc(Nc4cc(C5CC5)[nH]n4)cc(N4CCN(C)CC4)n3)ccc2[nH]1 [Compound 10] | 71% | 98% | 60% | 20% | -12% | 16% | 12% | 0% | -5% | 78% | 48% | -7% | -1% | -8% | -6% | 54% | 75% | -6% | 64% | 12% | inhibition at 0.1 µM (Rsk2(h)): 37%; inhibition at 0.1 µM (Rsk3(h)): 63%; inhibition at 0.1 µM (SAPK4(h)): -13%; inhibition at 0.1 µM (SRPK1(h)): -11%; inhibition at 0.1 µM (Snk(h)): 9%; inhibition at 0.1 µM (TAK1(h)): 38%; inhibition at 0.1 µM (TLK2(h)): 69%; inhibition at 0.1 µM (Txk(h)): 75%; inhibition at 0.1 µM (ULK3(h)): 86%; inhibition at 0.1 µM (WNK2(h)): -8%; inhibition at 0.1 µM (WNK3(h)): 1%; inhibition at 0.1 µM (c-RAF(h)): 6% |
| Cc1cc2c(F)c(Oc3nc(Nc4cc(C5CC5)[nH]n4)cc(N4CCNCC4)n3)ccc2[nH]1 [Compound 11, N-(5-cyclopropyl-1H-pyrazol-3-yl)-2-((4-fluoro-2-methyl-1H-indol-5-yl)oxy)-6-(piperazin-1-yl)pyrimidin-4-amine] | 72% | 99% | 48% | 78% | -9% | -14% | 5% | 3% | 23% | 92% | 54% | 11% | -6% | -13% | -16% | 47% | 66% | -1% | 63% | 71% | inhibition at 0.1 µM (Rsk2(h)): 7%; inhibition at 0.1 µM (Rsk3(h)): 63%; inhibition at 0.1 µM (SAPK4(h)): 3%; inhibition at 0.1 µM (SRPK1(h)): -14%; inhibition at 0.1 µM (Snk(h)): 5%; inhibition at 0.1 µM (TAK1(h)): 44%; inhibition at 0.1 µM (TLK2(h)): 70%; inhibition at 0.1 µM (Txk(h)): 87%; inhibition at 0.1 µM (ULK3(h)): 84%; inhibition at 0.1 µM (WNK2(h)): -6%; inhibition at 0.1 µM (WNK3(h)): 8%; inhibition at 0.1 µM (c-RAF(h)): 1% |

From patent US10245261B2, “Substituted indol-5-ol derivatives and their therapeutic applications” (NantBioScience, Inc., priority 2013, dated 2019)
